System: VSVD51-GFP in 786-0 cells
Assay type: cell-based, human
Settings: not given

Row | Compound | Approximate Peak Viral Sensitizer Dose [µM] | Viral sensitization activity / VSVD51 spread (in words)
1 | [O]=[V]([O-])([O-])[O-] [Vanadate, vanadate, reference compound] | 200 | increase in GFP foci
2 | vanadium (IV) citrate [CDOS139] |  | exhibited viral sensitization activity
3 | vanadium (V) citrate [CDOS140] | 30 | exhibited viral sensitization activity
4 | vanadium (V) citrate peroxo [CDOS141] | 50 | exhibited viral sensitization activity

System: oncolytic RNA viruses including vesicular stomatitis virus (VSV) and measles
Settings: cited from earlier work

Row | Compound | Replication and spread of oncolytic RNA viruses (in words)
5 | Cc1occc(=O)c1[O-].Cc1occc(=O)c1[O-].[O]=[V+2] [BMOV, bismaltolatoxovanadate] | improve the replication and spread of oncolytic RNA viruses
6 | [O]=[V]([O-])([O-])[O-] [orthovanadate] | improve the replication and spread of oncolytic RNA viruses

Reference: patent US20240293352A1 (priority 2021, published 2024)
